Patent publication US8217004B2, “Sequestering agent for micronutrient fertilisers” (priority 2005, dated 2012)

Assays:
Canola [1] = assay: Pot experiment: availability of Zn fertiliser to Canola grown on alkaline and calcareous soils; format: in vivo, Canola (variety Pinnacle); settings: calcareous grey sandy loam (Streaky Bay) and Sodosol (Birchip); 21 days; FIG. 2; LSD=1.72; p<0.01
Description: Topsoils from each location were collected, oven dried and passed through a 2 mm sieve. The experimental fertilisers were mixed with 20g of soil, which was banded between 100 g of the unfertilised bulk soil. Total nutrient application equated to (μg/g soil) P 60, N 27, applied as TGMAP, and Zn 0.2 as ZnSO4.7H2O. Chelate rates were based on the concentrations required to complex between 75 and 100% of the Zn in the fertiliser solution. Rates varied depending on the equilibrium constant (logK) and the stoichiometry of the Zn-ligand complexes. […] Each treatment was replicated four times.
Two pre-germinated Canola seeds (variety Pinnacle) were transferred to each pot. The pots were watered to θg=0.5 with deionised water every second day and evaporation was reduced with polyethylene beads, which were spread over the exposed surface of each pot. The plants were grown for 21 days in a controlled environment growth chamber (10 h dark at 15° C., 14 h light at 20° C., 41% humidity) before the shoots were harvested, rinsed, dried, weighed and then digested in concentrated HNO3. Plant digests were analysed for ^65Zn by gamma spectroscopy and for total nutrient contents by ICP-OES.
Data for shoot dry weight, shoot nutrient concentrations and Zn fertiliser uptake were analysed by analysis of variance (ANOVA). Significance between means was determined using the Least Significant Difference (LSD) test.

[2] = published value; cited from earlier work
Canola [3] = assay: Canola dry matter response to foliar applied Zn (shoot immersion); format: in vivo, Canola (var. Pinnacle); settings: Zn deficient Canola, shoots immersed five seconds; compared with ZnSO4 or ZnEDTA; FIG. 3; P<0.05, LSD=0.1496
Description: Dry matter response in Zn deficient Canola was used as a measure of fertiliser effectiveness because it considers metabolically available Zn, rather than total Zn uptake. Pre-germinated Canola seedlings (var. […] After 13 days, whole shoots were immersed in ZnSO4.7H2O solutions for five seconds. […] Rhamnolipid rates were high enough to ensure a Zn Kow of at least 50 at the highest Zn application rate. […] Wetting agent was not required in the Rhamnolipid solutions because of the surfactant properties of the ligand. […] After the three-week growth period, plant roots and shoots were harvested, dried and weighed for dry matter production.

[4] = n-Octanol/water partition coefficients (Kow) of metal-ligand complexes, shake-flask method; format: physicochemical
Description: n-Octanol/water partition coefficients (Kow) are commonly used to determine whether molecules can partition into hydrophobic (lipid-soluble) phases. Polar molecules, ie metals, generally partition in the water phase. Neutral, lipid soluble organic molecules may partition within the octanol phase according to their Kow. Most conventional chelate complexes (ie ZnEDTA^2−) partition within the water phase. […] The aim of this experiment was to determine whether Zn-Rhamnolipid complexes would partition within the n-octanol phase. Kow's were measured with varying Rhamnolipid concentrations. […] Final Rhamnolipid concentrations were (mM) 0, 0.1, 0.24, 0.5, 1, 1.5, 2, 2.5. Two millilitres of n-Octanol was added to the solutions before they were shaken end-over-end for 24 hours. Following shaking, 3 ml of solution was removed from the water phase and digested in concentrated HNO3 before analysis for total Zn by ICP-OES. The partition coefficient was calculated according to the equation above.

Molecule | total Zn uptake by canola (roots absorbed and translocated into shoots) (Canola [1]) | logK of Zn complex [2] | plant foliar dry matter response to applied Zn (Canola [3]) | partitioning of metal-ligand complex into the n-octanol phase (Kow) ([4]; Zn, Mn, Cu, shake-flask, 24 hours, FIG. 1) | Zn Kow ([4]; at the Rhamnolipid rates used for foliar test, at the highest Zn application rate)
O=C(O)CN(CCN(CC(=O)O)CC(=O)O)CC(=O)O [EDTA, reference compound] | ineffective |  |  |  | 
O=C([O-])CN(CCN(CC(=O)O)CC(=O)O)CC(=O)[O-].[Zn+2] [ZnEDTA] |  | 16.5 |  |  | 
rhamnolipid | significantly increased total Zn uptake |  | significantly increased dry matter response to Zn | dramatically facilitates the transfer of the metal ion from the aqueous phase into the octanol phase | at least 50
